Experimental findings from the METLIN SMRT retention time set (Domingo-Almenara et al. 2019) are described below.

This data set is described as follows: gradient 5% acetonitrile 3 min, to 50% in 2 min, to 85% in 15 min, held 3 min, 100 µL/min. The conditions noted are these: column: Zorbax Extend-C18 2.1 x 50 mm; eluents: water / acetonitrile, 0.1% formic acid. The essentials: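 Each retention time is based on an adduct peak selected computationally and verified by manual inspection. Measurements used HPLC–quadrupole time-of-flight mass spectrometry in positive and negative ionization mode on mixtures of ~100 pure standards. Chromatography ran on a Zorbax Extend-C18 column (2.1 × 50 mm, 1.8 μm) at 100 μL/min with water and acetonitrile, each containing 0.1% formic acid, and dead and dwell volumes of 40 μL and 900 μL.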
Take `CCCNC(=O)N1CCCN(C2=NS(=O)(=O)C(c3ccc(F)cc3)=C2C)CC1`: the RP-LC retention time came to 861 s.

In the case of `N#Cc1ccc(C(=O)N2CC(n3cc(COCC4CC4)nn3)C2)cc1`, the RP-LC retention time was 691 s.

In turn, `O=C(CCN1C(=O)C2C3C=CC(C3)C2C1=O)Nc1nc(-c2ccccc2)cs1` (stereo not drawn) yielded an RP-LC retention time of 926 s.

For the compound `Cn1c(=O)oc2cc(-c3noc(CNC(=O)Cc4ccccc4)n3)ccc21`, the RP-LC retention time worked out at 760 s.

`Cn1c(C2CCN(C(=O)Nc3ccccc3Br)CC2)cc(=O)n2nccc12` displayed an RP-LC retention time of 654 s.

With `CC(C)n1c(=O)c2ccccc2n(Cc2nc(-c3ccc4c(c3)OCO4)no2)c1=O`, the RP-LC retention time is 1080 s.

As to `COc1ccc(-c2cc3n(n2)CCCN(C(=O)NCCc2ccccc2)C3)cc1`, the RP-LC retention time is 814 s.

`CC(C)CNC(=O)CCn1c(=O)c2ccccc2n2c(=O)n(Cc3ccc(F)cc3)nc12` yielded an RP-LC retention time of 870 s.

In turn, `COc1ccc(Cc2nnc3sc(COc4ccc(OC)cc4)nn23)cc1` yielded an RP-LC retention time of 902 s.

The compound `O=C(NC1CCCCCC1)c1ccc(-c2cncnc2)nc1` registered an RP-LC retention time of 764 s.

Consider `Cc1ccc(NC(=O)C2CCN(S(=O)(=O)c3ccc4c(c3)NC(=O)C(C)O4)CC2)c(Cl)c1` (stereo not drawn), for which the RP-LC retention time was determined as 812 s.

For the compound `COc1ccc(-n2ccn3cc(-c4cccc(Cl)c4)nc3c2=O)cc1`, the RP-LC retention time stood at 873 s.

`COc1ccccc1-n1ccn2cc(-c3ccc(F)cc3F)nc2c1=O` gave an RP-LC retention time of 844 s.

In the case of `O=C(O)c1[nH]nc2c1COc1ccccc1-2`, the RP-LC retention time was found to be 673 s.

As to `C[C@@H]1CC2C3CCC4=CC(=O)C=CC4(C)[C@@]3(F)[C@@H](O)CC2(C)[C@@]1(O)C(=O)CO` (stereo partly drawn), the RP-LC retention time was 737 s.

Compound `O=C(NC1CCCCCC1)C1CCN(c2nccnc2Oc2ccccc2)CC1` showed an RP-LC retention time of 1020 s.

Compound `O=C(O)c1ccc2c(c1Sc1ccccc1)C(=O)c1ccccc1C2=O` came in with an RP-LC retention time of 887 s.

For the compound `Cn1cnc2c(C(=O)NC3CCCCCC3)nn(-c3ccc(Cl)cc3)c2c1=O`, the RP-LC retention time was determined as 929 s.

Compound `COC(=O)c1cccc(Nc2c(-c3ccccc3)nc3cnc(Br)cn23)c1` showed an RP-LC retention time of 949 s.

`COc1ccc(N2C(=O)C3N=NN(Cc4nc(-c5ccc(Cl)cc5)no4)C3C2=O)cc1OC` (stereo not drawn): the RP-LC retention time was determined as 963 s.

For the compound `O=C(COc1ccc(F)cc1)N1CCN(c2ccc(=O)n(-c3ccc(Cl)cc3)n2)CC1`, the RP-LC retention time was found to be 874 s.

Take `O=C(NCc1ccc2c(c1)OCO2)C(=O)NCC1OCCN1S(=O)(=O)c1ccccc1` (stereo not drawn): the RP-LC retention time was determined as 752 s.

As for `O=c1ccc(-c2ccc3c(c2)OCO3)nn1CCc1nc(-c2ccccc2)no1`, the RP-LC retention time worked out at 908 s.

For the compound `O=C(C1=CN(c2cccc(F)c2)c2cc(Cl)ccc2S1(=O)=O)N1CCOCC1`, the RP-LC retention time was determined as 825 s.

In turn, `Cc1ccc(C)c(-c2csc(Nc3ccc(F)cn3)n2)c1` gave an RP-LC retention time of 1150 s.

As to `CCCN(CCC)CCCNC(=O)C1CCCN(c2ncc(-c3ccc(F)cc3)cn2)C1` (stereo not drawn), the RP-LC retention time amounted to 749 s.

`COc1ccc(CC(=O)Nc2ccc(-c3nc(C)no3)cc2)cc1OC` returned an RP-LC retention time of 735 s.

Compound `COc1cc(C2C(=O)N(C3CCCC3)CC(=O)N2Cc2ccco2)ccc1OC(C)C` (stereo not drawn) came in with an RP-LC retention time of 915 s.

`CC(=O)Nc1cccc(C2=NN(C(C)=O)C(c3ccc4nccnc4c3)C2)c1` (stereo not drawn) registered an RP-LC retention time of 617 s.

In the case of `N#Cc1ccc(C(=O)N2CCCC2c2nc(-c3ccc(F)cc3F)no2)cc1` (stereo not drawn), the RP-LC retention time was determined as 921 s.

With `Cc1cc(C)n(-c2nc(C)c(C(=O)N(CCO)Cc3ccccc3)s2)n1`, the RP-LC retention time stood at 859 s.

`Cc1ccc2c(c1)N(Cc1nc(-c3ccc4c(c3)OCO4)no1)C(=O)CO2` returned an RP-LC retention time of 1020 s.

As to `CCOC(=O)c1nc(NCc2ccccc2OCC)c2c(C)noc2n1`, the RP-LC retention time was 988 s.

Turning to `O=[N+]([O-])c1ccc(CSc2nnc(-c3ccncc3)n2-c2ccccc2)cc1`, the RP-LC retention time stood at 706 s.

Compound `CCn1cc(S(=O)(=O)N2CCCn3nc(-c4ccncc4)cc3C2)cn1` yielded an RP-LC retention time of 577 s.

In the case of `CC(=O)Nc1ccc(CC(=O)N2C[C@@H]3CCN(S(C)(=O)=O)C[C@]3(CF)C2)cc1`, the RP-LC retention time worked out at 617 s.

`Cc1ccc(-n2nc3c(N4CCCC(C(=O)NCCC5=CCCCC5)C4)nnc(C)c3c2C)cc1` (stereo not drawn): the RP-LC retention time came to 865 s.

Consider `CCOc1ccc(NC(=O)CCC2CCN(c3cc(NC4CC4)ncn3)CC2)cc1`, for which the RP-LC retention time came out at 710 s.

For the compound `Cc1ccc(-c2nc3ccc(Cl)cn3c2Nc2ccc3c(c2)OCO3)cc1`, the RP-LC retention time is 708 s.

With `Cc1ccc(NC(=O)CN2C(=O)CCS(=O)(=O)c3ccccc32)c(C)c1`, the RP-LC retention time amounted to 768 s.

For the compound `CCc1ccc(NC(=O)Cn2c(=O)cc(-c3nc(C4CC4)no3)c3ccccc32)cc1`, the RP-LC retention time amounted to 1050 s.

`O=C(NC1CCCN(c2cc(-c3ccc(Cl)cc3)[nH]n2)C1)c1ccc2[nH]ccc2c1` (stereo not drawn) came in with an RP-LC retention time of 825 s.

`CC1CCCCC12NCCN=C2NCc1ccc(F)cc1` (stereo not drawn) had an RP-LC retention time of 603 s.

Take `COc1ccc(Nc2ccc3c(=O)c(-c4ccccc4OC)coc3c2)c(OC)c1`: the RP-LC retention time was 940 s.

The compound `CC(C)C(=O)Nc1cc2c(cc1S(=O)(=O)c1ccccc1)n(C)c(=O)n2C` showed an RP-LC retention time of 772 s.

`CCCc1c(C(=O)O)nnn1-c1ccccc1F` had an RP-LC retention time of 705 s.

In the case of `O=C(Cn1cnc2c(nnn2Cc2ccc(F)cc2)c1=O)N1CCCc2ccccc21`, the RP-LC retention time turned out to be 822 s.

The compound `O=C(NC1CCCCC1)N1CCC(c2noc(-c3ccncc3)n2)C1` (stereo not drawn) showed an RP-LC retention time of 727 s.

Regarding `CCCCC(=O)Nc1ccc2nc(N3CCN(C)CC3)cc(C(=O)O)c2c1`, the RP-LC retention time stood at 571 s.

With `C[C@]12CCC3=C4CCC(=O)C=C4CC[C@H]3[C@@H]1CC[C@@]2(O)CC#N`, the RP-LC retention time was found to be 796 s.

For `CC(C)c1ccc(CNC(=O)Cc2nnc(-c3ccccn3)o2)cc1`, the RP-LC retention time amounted to 578 s.

Compound `O=S(=O)(c1ccccc1F)N1CCC2(CCN(c3cccnc3)C2)C1` (stereo not drawn) showed an RP-LC retention time of 644 s.

Compound `O=S(=O)(Cc1ccccc1Cl)N1CCc2nc(-c3ccc(F)cc3)ncc2C1` gave an RP-LC retention time of 1100 s.

Take `O=C(NCCc1c[nH]c2ccc(Cl)cc12)c1ccc(F)cc1-n1cnnn1`: the RP-LC retention time stood at 805 s.

Compound `O=C(Nc1ccccc1)C1CC(=O)N(c2n[nH]c3cccc(F)c23)C1` (stereo not drawn) displayed an RP-LC retention time of 730 s.

As for `CCOC(=O)c1c(C)oc2nc(C)nc(NCCN(C)Cc3ccccc3)c12`, the RP-LC retention time was 701 s.

As to `COc1ccc2c(C)c(CC(=O)N3CCC(C(N)=O)CC3)c(=O)oc2c1C`, the RP-LC retention time was 661 s.

Regarding `Cc1ccccc1-c1nnc(CSc2nnc(NC(=O)Cc3ccc(F)cc3)s2)o1`, the RP-LC retention time stood at 923 s.

`CS(=O)(=O)N1CCCc2ccc(NC(=O)Nc3ccc(Cl)c(Cl)c3)cc21` gave an RP-LC retention time of 971 s.

In the case of `CCNC(=O)Nc1ccc2c(c1)CN(S(=O)(=O)c1ccc3c(c1)CCC3)CCO2`, the RP-LC retention time came to 894 s.

`CCN(c1cccc(C)c1)S(=O)(=O)c1cc(-c2[nH]ncc2C(=O)N(C)C)oc1C` had an RP-LC retention time of 792 s.

The compound `Cc1cccc(-c2noc(-c3ccc(N4CCN(C5CCCCC5)CC4)nc3)n2)c1` came in with an RP-LC retention time of 831 s.

Turning to `CCn1ncn2cc(S(=O)(=O)Nc3ccc(F)c(F)c3)cc2c1=O`, the RP-LC retention time came to 884 s.

Consider `CCCCN(CC)CCNC(=O)C1CCCN(c2ncnc3c2nc2n3CCCCC2)C1` (stereo not drawn), for which the RP-LC retention time turned out to be 614 s.

For the compound `c1cc(-c2nc(-c3ccc(-c4csc(C5CC5)n4)cc3)no2)ccn1`, the RP-LC retention time is 1290 s.

Turning to `Cc1cc(C)c2c(N3CCOCC3)nc(C(=O)N3CCN(c4ccccc4)CC3)nc2n1`, the RP-LC retention time came to 653 s.

`CCC(C)NC(=O)Cn1nc(C)c2sc(-c3ccccc3)nc2c1=O` (stereo not drawn) displayed an RP-LC retention time of 765 s.

For the compound `CCCn1c(=O)sc2cc(S(=O)(=O)N3CCC(C(=O)Nc4ccc(C)cc4C)CC3)ccc21`, the RP-LC retention time was 997 s.

For the compound `Cn1c(=O)c2cc(C(=O)Nc3ccc(Cl)cc3)cnc2n(-c2ccccc2)c1=O`, the RP-LC retention time came out at 962 s.

`Cc1cc(O)c(C(C[N+](=O)[O-])c2ccc(Cl)cc2Cl)c(=O)o1` (stereo not drawn) registered an RP-LC retention time of 803 s.

`CCc1ccc(-c2cc3c(=O)n(CC(=O)NCCCN4CCCC4=O)nc(C)n3n2)cc1`: the RP-LC retention time worked out at 812 s.

For the compound `CN(C)C(=O)c1ccc2c(c1)N(CC(=O)N1CCN(c3ccccn3)CC1)C(=O)CS2`, the RP-LC retention time came out at 573 s.

Consider `COc1ccc(CCC(=O)NCC(C)(O)c2ccccc2)cc1` (stereo not drawn), for which the RP-LC retention time came to 709 s.

Regarding `Cc1ccc(S(=O)(=O)N2CCC(C)(C(=O)NCc3ccccc3C)CC2)cc1C`, the RP-LC retention time was 1030 s.

`COc1cccc(CCC(=O)N2C[C@@H]3C[C@H]2C[C@@H]3NC(=O)c2cccs2)c1`: the RP-LC retention time turned out to be 753 s.

For `COC(=O)c1cc(OCC(=O)NC2CCCCC2)c2cc(OC)ccc2n1`, the RP-LC retention time came out at 791 s.

`O=C(NCCc1csc(-c2ccccc2)n1)C1CCN(S(=O)(=O)c2cccc(F)c2)CC1` yielded an RP-LC retention time of 922 s.

In turn, `O=C(CSc1nc(-c2ccccc2)cs1)NCc1ccco1` came in with an RP-LC retention time of 839 s.
